Source: US20100119599A1 (ARCHER PHARMACEUTICALS, INC., priority 2006, published 2010)

Experiments:
Aβ1-40 = experiment: Measurement of Aβ1-40 in culture medium of 7W WT APP751 CHO cells by ELISA; format: cell-based, Chinese hamster; conditions: for activity at 5 µM: Cricetulus griseus, Table 1, 5 μM test compound, CHO cells stably transfected with human APP751, culture medium, ELISA, control DMSO, 0 = no detectable amount; for Aβ1-40 (% of control): CHO cells that overexpress APP751, zero = below the detection limit of the assay
Aβ1-42 = experiment: Measurement of Aβ1-42 in culture medium of 7W WT APP751 CHO cells by ELISA; format: cell-based, Chinese hamster; conditions: for activity at 5 µM: Cricetulus griseus, Table 1, 5 μM test compound, CHO cells stably transfected with human APP751, culture medium, ELISA, control DMSO, 0 = no detectable amount, read-out: Aβ1-42 (% of control); for Aβ1-42 (% of control): CHO cells that overexpress APP751, zero = below the detection limit of the assay
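Note: 5 µM test compound but RI-coded compounds at 10 µM for 24 hours.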

SMILES | activity at 5 µM (Aβ1-40) [%] | activity at 5 µM (Aβ1-42) [%] | Aβ1-40 (% of control) (Aβ1-40) | Aβ1-42 (% of control) (Aβ1-42)
COC(=O)C1=C(C)NC2=C(C(=O)CCC2)C1c1ccc(OC)c(OC)c1OC (stereo not drawn) [ST013147, methyl 2-methyl-5-oxo-4-(2,3,4-trimethoxyphenyl)-1,4,6,7,8-pentahydroquinoline-3-carboxylate] | 72 | 45.4 | – | –
CC1=C(C(=O)OC2CCCC2)C(c2ccc(F)c(F)c2)C2=C(CCCC2=O)N1 (stereo not drawn) [ST052267, cyclopentyl 4-(3,4-difluorophenyl)-2-methyl-5-oxo-1,4,6,7,8-pentahydroquinoline-3-carboxylate] | 50.7 | 52.8 | – | –
CCCOC(=O)C1=C(C)NC2=C(C(=O)CCC2)C1c1ccc(C)cc1 (stereo not drawn) [ST013247, propyl 2-methyl-4-(4-methylphenyl)-5-oxo-1,4,6,7,8-pentahydroquinoline-3-carboxylate] | 35.5 | 55 | – | –
CCCCOc1ccccc1C1C(C(=O)OCCc2ccccc2)=C(C)NC2=C1C(=O)CC(C)(C)C2 (stereo not drawn) [ST014907, 2-phenylethyl 4-(2-butoxyphenyl)-2,7,7-trimethyl-5-oxo-1,4,6,7,8-pentahydroquinoline-3-carboxylate] | 34.6 | 83.5 | – | –
CC1=C(C(=O)OC(C)C)C(c2cccc(Cl)c2Cl)C2=C(CC(c3ccccc3)CC2=O)N1 (stereo not drawn) [ST013439, methylethyl 4-(2,3-dichlorophenyl)-2-methyl-5-oxo-7-phenyl-1,4,6,7,8-pentahydroquinoline-3-carboxylate] | 19.7 | 80.3 | – | –
CCOc1ccc(NC(=O)CSC2=C(C#N)C(c3cccs3)C(C(=O)Nc3ccccc3)=C(C)N2)cc1 (stereo not drawn) [RI_9] | – | – | 56.3 % of control | 27.6 % of control
COC(=O)C1=CN(C23CC4CC(CC(C4)C2)C3)C=C(C(=O)OC)C1c1cccc([N+](=O)[O-])c1 [ST045329, methyl 1-adamantanyl-5-(methoxycarbonyl)-4-(3-nitrophenyl)-1,4-dihydropyridine-3-carboxylate] | – | – | 82.6 % of control | 68.52 % of control
CCc1ccc(C2C(C(=O)OCc3ccccc3)=C(C)NC3=C2C(=O)CC(c2ccccc2)C3)cc1 (stereo not drawn) [ST013390, phenylmethyl 4-(4-ethylphenyl)-2-methyl-5-oxo-7-phenyl-1,4,6,7,8-pentahydroquinoline-3-carboxylate] | 23.4 | 98.3 | – | –
CCCCCOC(=O)C1=C(C)NC2=C(C(=O)CC(C)(C)C2)C1c1ccc([N+](=O)[O-])cc1 (stereo not drawn) [ST216093, pentyl 2,7,7-trimethyl-4-(4-nitrophenyl)-5-oxo-1,4,6,7,8-pentahydroquinoline-3-carboxylate] | 0 | 0 | – | –
Cc1ccsc1/C=c1\sc2n(c1=O)C(N)=C(C#N)C(c1sccc1C)C=2C#N (stereo not drawn) [ST006952, 5-amino-7-(3-methyl(2-thienyl))-2-[(3-methyl(2-thienyl))methylene]-3-oxo-4,7-dihydro-1,3-thiazolidino[3,2-a]pyridine-6,8-dicarbonitrile] | – | – | 48.24 % of control | 77.1 % of control
COc1ccc(COC(=O)C2=C(C)NC3=C(C(=O)CCC3)C2c2ccc(Br)cc2)cc1 (stereo not drawn) [ST018645, (4-methoxyphenyl)methyl 4-(4-bromophenyl)-2-methyl-5-oxo-1,4,6,7,8-pentahydroquinoline-3-carboxylate] | 7.03 | 18 | – | –
CCc1cccc(NC(=O)CSC2=C(C#N)C(c3cc4cccnc4s3)C(C(=O)Nc3ccccc3)=C(C)N2)c1 (stereo not drawn) [RI_84] | – | – | 64.2 % of control | 44.5 % of control
CC1=C(C(=O)Nc2ccc(Cl)cc2)C(c2ccccc2)C(C#N)=C(SCC(=O)Nc2ccccc2C)N1 (stereo not drawn) [RI_40] | – | – | 25.7 % of control | 43.2 % of control
CCCOc1ccccc1C1C(C(=O)OCCc2ccccc2)=C(C)NC2=C1C(=O)CCC2 (stereo not drawn) [ST015060, 2-phenylethyl 2-methyl-5-oxo-4-(2-propoxyphenyl)-1,4,6,7,8-pentahydroquinoline-3-carboxylate] | 0 | 0 | – | –
COc1cccc(NC(=O)CSC2=C(C#N)C(c3ccsc3)C(C(=O)Nc3ccccc3)=C(C)N2)c1 (stereo not drawn) [RI_51] | – | – | 53.5 % of control | 58 % of control
CC1=C(C(=O)Nc2ccccc2)C(c2cccs2)C(C#N)=C(SCC(=O)NCCc2ccccc2)N1 (stereo not drawn) [RI_27] | – | – | 34.4 % of control | 26.5 % of control
CC(C)Oc1ccc(/C=c2\sc3n(c2=O)C(N)=C(C#N)C(c2ccc(OC(C)C)cc2)C=3C#N)cc1 (stereo not drawn) [ST025026, 5-amino-7-[4-(methylethoxy)phenyl]-2-{[4-(methylethoxy)phenyl]methylene}-3-oxo-4,7-dihydro-1,3-thiazolidino[3,2-a]pyridine-6,8-dicarbonitrile] | – | – | 26.82 % of control | 0 % of control

SMILES | activity at 5 µM (Aβ1-40) [%] | activity at 5 µM (Aβ1-42) [%] | Aβ1-40 (% of control) (Aβ1-40) | Aβ1-42 (% of control) (Aβ1-42)
CC1=C(C(=O)OCCOc2ccccc2)C(c2ccncc2)C2=C(CC(c3ccccc3)CC2=O)N1 (stereo not drawn) [ST017084, 2-phenoxyethyl 2-methyl-5-oxo-7-phenyl-4-(4-pyridyl)-1,4,6,7,8-pentahydroquinoline-3-carboxylate] | 54.3 | 84.7 | – | –
CCCOc1ccccc1C1C(C(=O)OCCc2ccccc2)=C(C)NC2=C1C(=O)CC(C)(C)C2 (stereo not drawn) [ST015048, 2-phenylethyl 2,7,7-trimethyl-5-oxo-4-(2-propoxyphenyl)-1,4,6,7,8-pentahydroquinoline-3-carboxylate] | 37.9 | 88.7 | – | –
N#CC1=C(N)n2c(s/c(=C\c3ccc(O)cc3)c2=O)=C(C#N)C1c1ccc(O)cc1 (stereo not drawn) [ST025034, 5-amino-7-(4-hydroxyphenyl)-2-[(4-hydroxyphenyl)methylene]-3-oxo-4,7-dihydro-1,3-thiazolidino[3,2-a]pyridine-6,8-dicarbonitrile] | – | – | 69.9 % of control | 85.11 % of control
CC1=C(C(=O)OCc2ccccc2)C(c2ccccc2C(F)(F)F)C2=C(CC(C)(C)CC2=O)N1 (stereo not drawn) [ST014881, phenylmethyl 2,7,7-trimethyl-5-oxo-4-[2-(trifluoromethyl)phenyl]-1,4,6,7,8-pentahydroquinoline-3-carboxylate] | 0 | 49.9 | – | –
COc1ccccc1C1C(C(=O)OC(C)C)=C(C)NC2=C1C(=O)CC(c1ccccc1)C2 (stereo not drawn) [ST017220, methylethyl 4-(2-methoxyphenyl)-2-methyl-5-oxo-7-phenyl-1,4,6,7,8-pentahydroquinoline-3-carboxylate] | 60.9 | 99.6 | – | –
COC(=O)C1=C(C)NC2=C(C(=O)CC(c3ccccc3Cl)C2)C1c1ccc([N+](=O)[O-])cc1 (stereo not drawn) [ST015176, methyl 7-(2-chlorophenyl)-2-methyl-4-(4-nitrophenyl)-5-oxo-1,4,6,7,8-pentahydroquinoline-3-carboxylate] | 17.4 | 76.4 | – | –
CC1=C(C(=O)Nc2ccccc2)C(c2cccs2)C(C#N)=C(SCC(=O)Nc2ccc(Cl)c(C)c2)N1 (stereo not drawn) [RI_72] | – | – | 40.2 % of control | 50.9 % of control
C=CCOC(=O)C1=C(C)NC2=C(C(=O)CCC2)C1c1ccc(OCCC)c(OC)c1 (stereo not drawn) [ST013183, prop-2-enyl 4-(3-methoxy-4-propoxyphenyl)-2-methyl-5-oxo-1,4,6,7,8-pentahydroquinoline-3-carboxylate] | 78.7 | 66.3 | – | –
COC(=O)C1=C(C)NC2=C(C(=O)CC(c3cccs3)C2)C1c1cccc(C(F)(F)F)c1 (stereo not drawn) [ST052393, methyl 2-methyl-5-oxo-7-(2-thienyl)-4-[3-(trifluoromethyl)phenyl]-1,4,6,7,8-pentahydroquinoline-3-carboxylate] | 34.2 | 48.2 | – | –
CC1=C(C(=O)Nc2ccccc2)C(c2cccs2)C(C#N)=C(SCC(=O)Nc2ccc(Oc3ccccc3)cc2)N1 (stereo not drawn) [RI_8] | – | – | 46.1 % of control | 26.4 % of control
CCOC(=O)C1=C(C)N(c2nonc2NC(C)=O)C(N)=C(C#N)C1c1ccc(Cl)cc1Cl (stereo not drawn) [ST026470, ethyl 1-[4-(acetylamino)(1,2,5-oxadiazol-3-yl)]-6-amino-4-(2,4-dichlorophenyl)-5-cyano-2-methyl-1,4-dihydropyridine-3-carboxylate] | – | – | 81.7 % of control | 67.48 % of control
CCOC(=O)C1=C(C)NC2=C(C(=O)CCC2)C1c1ccc(OCC)cc1 (stereo not drawn) [ST213781, ethyl 4-(4-ethoxyphenyl)-2-methyl-5-oxo-1,4,6,7,8-pentahydroquinoline-3-carboxylate] | 66.8 | 81.3 | – | –
CC1=C(C(=O)Nc2ccc(Cl)cc2)C(c2ccccc2)c2c(sc(C(=O)Nc3cccc(C)c3)c2N)N1 (stereo not drawn) [RI_43] | – | – | 61.2 % of control | 75.1 % of control
COC(=O)C1=C(C)NC2=C(C(=O)CC(c3ccccc3)C2)C1c1ccc(O)c(OC)c1 (stereo not drawn) [ST013115, methyl 4-(4-hydroxy-3-methoxyphenyl)-2-methyl-5-oxo-7-phenyl-1,4,6,7,8-pentahydroquinoline-3-carboxylate] | 94.7 | 65.7 | – | –
CC1=C(C(=O)Nc2ccccc2)C(c2cccs2)C(C#N)=C(SCC(=O)Nc2cccc(Cl)c2C)N1 (stereo not drawn) [RI_38] | – | – | 62.5 % of control | 103.4 % of control
CC1=C(C(=O)Nc2ccc(Cl)cc2)C(c2ccccc2)C(C#N)=C(SCC(=O)Nc2cccc(C)c2)N1 (stereo not drawn) [ST051153, 2-{5-[N-(4-chlorophenyl)carbamoyl]-3-cyano-6-methyl-4-phenyl(2-1,4-dihydropyridylthio)}-N-(3-methylphenyl)acetamide] | – | – | 4.933 % of control | 0 % of control
